In patent publication US11878992B2, “Crystallization of steviol glycosides” (DSM IP Assets B.V., priority 2016, dated 2024):

Experiments:
[1] = spontaneous crystallization from nanofiltration retentate; type: physicochemical; settings: aqueous nanofiltration retentate of fermentation broth
Method: The fermentation broth after laboratory scale fermentations was processed as follows: • centrifugation 30 min at 4000×g; • pH in the supernatant was adjusted to 3.5 and supernatant was heated 30 min at 70° C.; • the heated supernatant was clarified by centrifugation; • the clarified supernatant was ultrafiltrated through a membrane with 10 kDa cut-off; and • the permeate after ultrafiltration was nanofiltrated using a membrane with 150-300 Da cut-off.
Finally, 14.5 g of dried crystals were isolated out of 0.871 kg NF retentate.

[2] = solubility in washing liquid (95% ethanol); type: physicochemical; settings: in 95% ethanol (washing liquid)
Method: The suspension of 2.5 g crystals in 100 ml water was heated to 75° C. for 10 minutes to dissolve the crystals. The solution was cooled to 20° C. at 10° C./h and incubated at this temperature overnight. The crystals formed were filtered by vacuum and washed with two cake volumes of 95% ethanol
The choice of washing liquid was because of the low rebaudioside M solubility in it. The crystals were dried at 60° C. under vacuum overnight. […] The crystals contained >95% Reb-M as determined by LC-UV and the level of all KAG was below the limit of detection of LC-MS.

[3] = system: mildly hypertensive patients; settings: studies suggest; cited from earlier work
Type II diabetics = settings: studies suggest; cited from earlier work
[4] = suitable for use in carbonated beverages and many other foods; cited from earlier work
[5] = relative to sucrose; cited from earlier work

In the case of `C=C1C[C@@]23CC[C@H]4[C@@](C)(CCC[C@@]4(C)C(=O)O[C@@H]4O[C@H](CO)[C@@H](O)[C@H](O[C@@H]5O[C@H](CO)[C@@H](O)[C@H](O)[C@H]5O)[C@H]4O[C@@H]4O[C@H](CO)[C@@H](O)[C@H](O)[C@H]4O)[C@@H]2CC[C@]1(O[C@@H]1O[C@H](CO)[C@@H](O)[C@H](O[C@@H]2O[C@H](CO)[C@@H](O)[C@H](O)[C@H]2O)[C@H]1O[C@@H]1O[C@H](CO)[C@@H](O)[C@H](O)[C@H]1O)C3` [rebaudioside M], the “concentration in the retentate of nanofiltration at which crystallization begins spontaneously” value [1] is reported as “exceeded 30 g/I” and the solubility [2] is reported as “low”.

For `C=C1C[C@@]23CC[C@H]4[C@@](C)(CCC[C@@]4(C)C(=O)O[C@@H]4O[C@H](CO)[C@@H](O)[C@H](O)[C@H]4O)[C@@H]2CC[C@]1(O[C@@H]1O[C@H](CO)[C@@H](O)[C@H](O)[C@H]1O[C@@H]1O[C@H](CO)[C@@H](O)[C@H](O)[C@H]1O)C3` [Stevioside], the “effect on blood pressure” value [3] is given as “can reduce blood pressure”, the “effect on blood glucose levels” value (Type II diabetics) is given as “can reduce blood glucose levels” and the “heat and pH stability” value [4] is given as “heat and pH stable”.

In the case of `C=C1C[C@@]23CC[C@H]4[C@@](C)(CCC[C@@]4(C)C(=O)O[C@@H]4O[C@H](CO)[C@@H](O)[C@H](O)[C@H]4O[C@@H]4O[C@H](CO)[C@@H](O)[C@H](O)[C@H]4O)[C@@H]2CC[C@]1(O[C@@H]1O[C@H](CO)[C@@H](O)[C@H](O[C@@H]2O[C@H](CO)[C@@H](O)[C@H](O)[C@H]2O)[C@H]1O[C@@H]1O[C@H](CO)[C@@H](O)[C@H](O)[C@H]1O)C3` [rebaudioside D], the “times sweeter than sucrose” value [5] is given as “about 200 times”.

For `C=C1C[C@@]23CC[C@H]4[C@@](C)(CCC[C@@]4(C)C(=O)O[C@@H]4O[C@H](CO)[C@@H](O)[C@H](O)[C@H]4O)[C@@H]2CC[C@]1(O[C@@H]1O[C@H](CO)[C@@H](O)[C@H](O[C@@H]2O[C@H](CO)[C@@H](O)[C@H](O)[C@H]2O)[C@H]1O[C@@H]1O[C@H](CO)[C@@H](O)[C@H](O)[C@H]1O)C3` [rebaudioside A], the “heat and pH stability” value [4] is given as “heat and pH stable”.
